# From patent publication US11191843B2, “Multi-arm targeting anti-cancer conjugate” (priority 2017, dated 2021)
# Test system: orthotopic U87MG brain glioma
# Assay: Effect on survival in orthotopic U87MG brain glioma model in nude mice
# Format: in vivo
# Details: BALB/c nude mice, 40 mg·kg^-1 (as irinotecan), i.v. via tail, Q4D×3, dosing from day 12 after inoculation
# Experimental: Experimental animals: Female BALB/c nude mice (number of animals: 150, weeks of age: 6 to 8 weeks) were purchased from Beijing Vital River Laboratory Animal Technology Co., Ltd., and housed in an SPF animal room. The temperature was 20° C. to 25° C., the relative humidity was 40% to 70%, and the light and dark were respectively 12 hours. The animals had free access to water and food. After about one week of normal feeding, upon a veterinary inspection, mice with good physical signs and conditions could be selected for this experiment. A marking pen was used to mark the base of the tails of the animals before the grouping, and each animal was marked by ear clipping after the grouping.
# Transplantable tumor cell strain: Brain glioma cell U87MG, derived from Cell Bank of Committee on Type Culture Collection of Chinese Academy of Science (CAS, stored frozen in liquid nitrogen in the laboratory).
# According to the condition of cell growth, the cells were passaged once or twice every week, and were passaged in a ratio of 1:2 to 1:6.
# Preparation of the animal model: U87MG cells in logarithmic phase of growth were collected. […] The cells were charged into a 50 mL centrifuge tube after being pipetted with a pipettor to make them evenly dispersed, and the centrifuge tube was placed in an ice box. […]
# Data recording and calculation formula: The survival time of the animals were recorded.
structure (smiles),measurement,value
CCc1c2c(nc3ccc(OC(=O)N4CCC(N5CCCCC5)CC4)cc13)-c1cc3c(c(=O)n1C2)COC(=O)[C@]3(O)CC [irinotecan],Median survival time,27 days
